Literature values as cited in patent publication US6479045B2, “Vaginal pH buffering for preventing miscarriage and premature labor, by treating or preventing bacterial vaginosis” (Columbia Laboratories, Inc., priority 1999, dated 2002).

Tested on: Bacterial Vaginosis
Details: within one month

Cc1ncc([N+](=O)[O-])n1CCO [metronidazole]
cure rate: approximately 70%
